# Article PMC5218480 (PLoS ONE, 2017)
# Tested on: MV-4-11 cells
# Assay: Gene expression microarray analysis (Affymetrix PrimeView) and GSEA
# Assay type: cell-based, human
# Parameters: RFU PODN (11730768_x_at) / Fold change /veh PODN (11730768_x_at) / RFU LINC00158 (11744669_a_at) / Fold change /veh LINC00158 (11744669_a_at) / RFU DUSP10 (11751237_a_at) / Fold change /veh DUSP10 (11751237_a_at) / RFU ID3 (11757404_x_at) / Fold change /veh ID3 (11757404_x_at) / RFU PLEKHG5 (11737974_s_at) / Fold change /veh PLEKHG5 (11737974_s_at) / RFU LRRC4B (11730491_at) / Fold change /veh LRRC4B (11730491_at) / RFU GIMAP4 (11747438_a_at) / Fold change /veh GIMAP4 (11747438_a_at) / RFU KRT8 (11758183_x_at) / Fold change /veh KRT8 (11758183_x_at) / RFU CNN1 (11734310_a_at) / Fold change /veh CNN1 (11734310_a_at) / RFU VPS37D (11726825_at) / Fold change /veh VPS37D (11726825_at) / RFU C10orf10 (11716522_x_at) / Fold change /veh C10orf10 (11716522_x_at) / RFU KIR2DL2 /// KIR2DL4 /// KIR2DL5A /// KIR2DL5B /// KIR2DS1 /// KIR2DS2 /// KIR2DS3 /// KIR2DS4 /// KIR3DL3 /// KIR3DL3 /// KIR3DS1 (11738374_at) / Fold change /veh KIR2DL2 /// KIR2DL4 /// KIR2DL5A /// KIR2DL5B /// KIR2DS1 /// KIR2DS2 /// KIR2DS3 /// KIR2DS4 /// KIR3DL3 /// KIR3DL3 /// KIR3DS1 (11738374_at) / RFU C1QL1 (11718748_at) / Fold change /veh C1QL1 (11718748_at) / RFU TMPRSS4 (11747572_a_at) / Fold change /veh TMPRSS4 (11747572_a_at) / RFU HAMP (11756126_x_at) / Fold change /veh HAMP (11756126_x_at) / RFU RNFT2 (11725882_a_at) / Fold change /veh RNFT2 (11725882_a_at) / RFU NR4A2 (11747474_a_at) / Fold change /veh NR4A2 (11747474_a_at) / RFU ABCC12 (11746883_a_at) / Fold change /veh ABCC12 (11746883_a_at) / RFU TMEM136 (11760407_x_at) / Fold change /veh TMEM136 (11760407_x_at) / RFU CLDN22 /// WWC2 (11732394_at) / Fold change /veh CLDN22 /// WWC2 (11732394_at) / RFU HLA-DPB1 (11760878_x_at) / Fold change /veh HLA-DPB1 (11760878_x_at) / RFU SPINT1 (11716480_a_at) / Fold change /veh SPINT1 (11716480_a_at) / RFU GAP43 (11754022_s_at) / Fold change /veh GAP43 (11754022_s_at) / RFU A4GNT (11735810_at) / Fold change /veh A4GNT (11735810_at) / RFU PRB3 (11715151_x_at) / Fold change /veh PRB3 (11715151_x_at) / RFU TUBB4B (11761932_at) / Fold change /veh TUBB4B (11761932_at) / RFU CAPN14 (11732068_a_at) / Fold change /veh CAPN14 (11732068_a_at) / RFU TMCC2 (11721928_a_at) / Fold change /veh TMCC2 (11721928_a_at) / RFU IRGQ (11745062_a_at) / Fold change /veh IRGQ (11745062_a_at) / RFU FAM174B (11720279_a_at) / Fold change /veh FAM174B (11720279_a_at) / RFU TMPRSS4 (11748680_a_at) / Fold change /veh TMPRSS4 (11748680_a_at) / RFU FAM212B (11763350_a_at) / Fold change /veh FAM212B (11763350_a_at) / RFU PLEKHG5 (11743358_a_at) / Fold change /veh PLEKHG5 (11743358_a_at) / RFU ZSCAN30 (11745921_a_at) / Fold change /veh ZSCAN30 (11745921_a_at) / RFU CMKLR1 (11741424_a_at) / Fold change /veh CMKLR1 (11741424_a_at) / RFU LOC101060620 /// MAPK8IP1 (11723275_at) / Fold change /veh LOC101060620 /// MAPK8IP1 (11723275_at) / RFU SPTSSB (11747773_x_at) / Fold change /veh SPTSSB (11747773_x_at) / RFU PRSS12 (11739890_at) / Fold change /veh PRSS12 (11739890_at) / RFU BIN1 (11741810_x_at) / Fold change /veh BIN1 (11741810_x_at) / RFU WNT11 (11732464_a_at) / Fold change /veh WNT11 (11732464_a_at) / RFU C10orf10 (11716521_a_at) / Fold change /veh C10orf10 (11716521_a_at) / RFU C5orf56 (11738089_at) / Fold change /veh C5orf56 (11738089_at) / RFU CYB561 (11721691_x_at) / Fold change /veh CYB561 (11721691_x_at) / RFU ANKRD19P (11752326_a_at) / Fold change /veh ANKRD19P (11752326_a_at) / RFU OR2T12 /// OR2T33 /// OR2T8 (11738714_s_at) / Fold change /veh OR2T12 /// OR2T33 /// OR2T8 (11738714_s_at) / RFU VCAN (11748164_a_at) / Fold change /veh VCAN (11748164_a_at) / RFU JSRP1 (11732532_at) / Fold change /veh JSRP1 (11732532_at) / RFU KRTAP10-11 (11738290_x_at) / Fold change /veh KRTAP10-11 (11738290_x_at) / RFU MYO3A (11730013_a_at) / Fold change /veh MYO3A (11730013_a_at) / RFU EBF3 (11725865_a_at) / Fold change /veh EBF3 (11725865_a_at) / RFU CAMK2N1 (11719241_x_at) / Fold change /veh CAMK2N1 (11719241_x_at) / RFU C5orf56 (11738088_a_at) / Fold change /veh C5orf56 (11738088_a_at) / RFU OLFML3 (11715873_a_at) / Fold change /veh OLFML3 (11715873_a_at) / RFU LOC100653217 /// NTM (11731650_a_at) / Fold change /veh LOC100653217 /// NTM (11731650_a_at) / RFU MAPK11 (11762145_a_at) / Fold change /veh MAPK11 (11762145_a_at) / RFU FIZ1 (11724087_x_at) / Fold change /veh FIZ1 (11724087_x_at) / RFU OASL (11726364_x_at) / Fold change /veh OASL (11726364_x_at) / RFU SOX15 (11748057_x_at) / Fold change /veh SOX15 (11748057_x_at) / RFU CD79A (11719716_a_at) / Fold change /veh CD79A (11719716_a_at) / RFU HIST1H1D (11736915_at) / Fold change /veh HIST1H1D (11736915_at) / RFU CASKIN2 (11723855_a_at) / Fold change /veh CASKIN2 (11723855_a_at) / RFU LOC730098 (11760151_x_at) / Fold change /veh LOC730098 (11760151_x_at) / RFU OR4N2 (11742367_at) / Fold change /veh OR4N2 (11742367_at) / RFU PRRT2 (11749266_a_at) / Fold change /veh PRRT2 (11749266_a_at) / RFU SNX32 (11753110_a_at) / Fold change /veh SNX32 (11753110_a_at) / RFU CDHR5 (11726645_a_at) / Fold change /veh CDHR5 (11726645_a_at) / RFU RCAN1 (11760418_a_at) / Fold change /veh RCAN1 (11760418_a_at) / RFU FAM167A (11723789_a_at) / Fold change /veh FAM167A (11723789_a_at) / RFU FAM26E (11764081_at) / Fold change /veh FAM26E (11764081_at) / RFU ISYNA1 (11749810_s_at) / Fold change /veh ISYNA1 (11749810_s_at) / RFU ACY1 (11761880_at) / Fold change /veh ACY1 (11761880_at) / RFU 11764098_at / Fold change /veh 11764098_at / RFU SAMD14 (11745864_x_at) / Fold change /veh SAMD14 (11745864_x_at) / RFU NPB (11741838_a_at) / Fold change /veh NPB (11741838_a_at) / RFU TMPRSS6 (11731388_a_at) / Fold change /veh TMPRSS6 (11731388_a_at) / RFU KRTAP10-2 (11738614_at) / Fold change /veh KRTAP10-2 (11738614_at) / RFU ARHGAP8 /// PRR5-ARHGAP8 (11727945_x_at) / Fold change /veh ARHGAP8 /// PRR5-ARHGAP8 (11727945_x_at) / RFU KRTAP5-7 /// NADSYN1 (11734609_at) / Fold change /veh KRTAP5-7 /// NADSYN1 (11734609_at) / RFU RASL12 (11751679_a_at) / Fold change /veh RASL12 (11751679_a_at) / RFU CDKN2B (11736163_a_at) / Fold change /veh CDKN2B (11736163_a_at) / RFU PRF1 (11729649_at) / Fold change /veh PRF1 (11729649_at) / RFU, ZNF638 /// ZNF638-IT1 / Fold change vs veh, ZNF638 /// ZNF638-IT1 / RFU, PANK3 / Fold change vs veh, PANK3 / RFU, SH3YL1 / Fold change vs veh, SH3YL1 / RFU, ZEB2 / Fold change vs veh, ZEB2 / RFU, NRIP1 / Fold change vs veh, NRIP1 / RFU, PTTG1IP / Fold change vs veh, PTTG1IP / RFU, CAPN2 / Fold change vs veh, CAPN2 / RFU, MED14 / Fold change vs veh, MED14 / RFU, SNORA58 / Fold change vs veh, SNORA58 / RFU, C1orf63 / Fold change vs veh, C1orf63 / RFU, LRRFIP1 / Fold change vs veh, LRRFIP1 / RFU, NDUFAF7 / Fold change vs veh, NDUFAF7 / RFU, SLC12A2 / Fold change vs veh, SLC12A2 / RFU, IBTK / Fold change vs veh, IBTK / RFU, ESF1 / Fold change vs veh, ESF1 / Fold change vs veh, TMEM50B / RFU, TAOK1 / Fold change vs veh, TAOK1 / RFU, ACBD3 / Fold change vs veh, ACBD3 / RFU, TMA16 / Fold change vs veh, TMA16 / RFU, RWDD3 / Fold change vs veh, RWDD3 / RFU, BCAT1 / Fold change vs veh, BCAT1 / RFU, EDEM3 / Fold change vs veh, EDEM3 / RFU, TMEM33 / Fold change vs veh, TMEM33 / RFU, WDR75 / Fold change vs veh, WDR75 / RFU, AHCTF1 / Fold change vs veh, AHCTF1 / RFU, TFRC / Fold change vs veh, TFRC / RFU, ZDHHC17 / Fold change vs veh, ZDHHC17 / RFU, NOM1 / Fold change vs veh, NOM1 / RFU, ARL8B / Fold change vs veh, ARL8B / RFU, ZBTB11 / Fold change vs veh, ZBTB11 / RFU, TAMM41 / Fold change vs veh, TAMM41 / RFU, KIAA1704 /// LOC100996395 / Fold change vs veh, KIAA1704 /// LOC100996395 / RFU, ING1 / Fold change vs veh, ING1 / RFU, TRMT61B / Fold change vs veh, TRMT61B / RFU, FUBP3 / Fold change vs veh, FUBP3 / RFU, TP53 / Fold change vs veh, TP53 / RFU, TNKS2 / Fold change vs veh, TNKS2 / RFU, ZFP14 / Fold change vs veh, ZFP14 / RFU, ACTR2 / Fold change vs veh, ACTR2 / RFU, PPP3R1 / Fold change vs veh, PPP3R1 / RFU, PIK3R1 / Fold change vs veh, PIK3R1 / RFU, HNRNPA1 / Fold change vs veh, HNRNPA1 / RFU, RNF170 / Fold change vs veh, RNF170 / RFU, ZNF28 / Fold change vs veh, ZNF28 / RFU, RNGTT / Fold change vs veh, RNGTT / RFU, OGT / Fold change vs veh, OGT / RFU, BRD1 / Fold change vs veh, BRD1 / RFU, MARS / Fold change vs veh, MARS / RFU, ZNF655 / Fold change vs veh, ZNF655 / RFU, FAHD1 / Fold change vs veh, FAHD1 / RFU, BDP1 / Fold change vs veh, BDP1 / RFU, LRRCC1 / Fold change vs veh, LRRCC1 / RFU, ARID1A / Fold change vs veh, ARID1A / RFU, ZNF146 / Fold change vs veh, ZNF146 / RFU, ZNF330 / Fold change vs veh, ZNF330 / RFU, GPN3 / Fold change vs veh, GPN3 / RFU, C9orf123 / Fold change vs veh, C9orf123 / RFU, N4BP2L2 / Fold change vs veh, N4BP2L2 / RFU, ARFIP1 / Fold change vs veh, ARFIP1 / RFU, FAM179B / Fold change vs veh, FAM179B / RFU, BCL10 / Fold change vs veh, BCL10 / RFU, UHRF1BP1L / Fold change vs veh, UHRF1BP1L / RFU, BET1 / Fold change vs veh, BET1 / RFU, CNOT2 / Fold change vs veh, CNOT2 / RFU, ZNF268 / Fold change vs veh, ZNF268 / Fold change vs veh, ZNF507 / RFU, DGCR2 / Fold change vs veh, DGCR2 / RFU, WDSUB1 / Fold change vs veh, WDSUB1 / Fold change vs veh, HSP90B1 /// MIR3652 / RFU, ADSS / Fold change vs veh, ADSS / RFU, GK / Fold change vs veh, GK / RFU, ZNF148 / Fold change vs veh, ZNF148 / RFU, TAF9 / Fold change vs veh, TAF9 / RFU, SLC1A5 / Fold change vs veh, SLC1A5 / RFU, SLMO2 / Fold change vs veh, SLMO2 / RFU, ABCC4 / Fold change vs veh, ABCC4 / RFU, LOC101060439 /// RAP1B / Fold change vs veh, LOC101060439 /// RAP1B / RFU, RFX7 / Fold change vs veh, RFX7 / RFU, GTPBP10 / Fold change vs veh, GTPBP10 / RFU, CNEP1R1 / Fold change vs veh, CNEP1R1 / RFU, BIVM-ERCC5 /// ERCC5 / Fold change vs veh, BIVM-ERCC5 /// ERCC5 / RFU, ILF3 / Fold change vs veh, ILF3 / RFU 11762660_at / Fold change /veh 11762660_at / RFU VCAN (11757783_s_at) / Fold change /veh VCAN (11757783_s_at) / RFU DDX43 (11728927_at) / Fold change /veh DDX43 (11728927_at) / RFU KRT8 (11758188_x_at) / Fold change /veh KRT8 (11758188_x_at) / RFU NKD1 (11759106_at) / Fold change /veh NKD1 (11759106_at) / RFU SRD5A1 (11742802_a_at) / Fold change /veh SRD5A1 (11742802_a_at) / RFU TPSAB1 /// TPSB2 (11721975_s_at) / Fold change /veh TPSAB1 /// TPSB2 (11721975_s_at) / RFU GSTM3 (11746129_a_at) / Fold change /veh GSTM3 (11746129_a_at) / RFU IL23R (11737362_x_at) / Fold change /veh IL23R (11737362_x_at) / RFU TMEM51 (11727254_a_at) / Fold change /veh TMEM51 (11727254_a_at) / RFU PIWIL2 (11732686_x_at) / Fold change /veh PIWIL2 (11732686_x_at) / RFU ORM1 (11744905_x_at) / Fold change /veh ORM1 (11744905_x_at) / RFU CCDC152 (11743942_at) / Fold change /veh CCDC152 (11743942_at) / RFU ECM1 (11717891_a_at) / Fold change /veh ECM1 (11717891_a_at) / RFU IL23R (11748794_a_at) / Fold change /veh IL23R (11748794_a_at) / RFU TNFAIP8L3 (11732012_x_at) / Fold change /veh TNFAIP8L3 (11732012_x_at) / RFU MBOAT4 (11741988_at) / Fold change /veh MBOAT4 (11741988_at) / RFU 11764193_at / Fold change /veh 11764193_at / RFU TMEM53 (11763286_at) / Fold change /veh TMEM53 (11763286_at) / RFU MAGEB2 (11727129_at) / Fold change /veh MAGEB2 (11727129_at) / RFU TMEM200A (11744735_a_at) / Fold change /veh TMEM200A (11744735_a_at) / RFU CCDC152 (11751479_a_at) / Fold change /veh CCDC152 (11751479_a_at) / RFU FAM211A (11726209_a_at) / Fold change /veh FAM211A (11726209_a_at) / RFU RGS16 (11746705_a_at) / Fold change /veh RGS16 (11746705_a_at) / RFU VCAN (11755009_s_at) / Fold change /veh VCAN (11755009_s_at) / RFU RHOB (11743442_s_at) / Fold change /veh RHOB (11743442_s_at) / RFU RGS16 (11720943_a_at) / Fold change /veh RGS16 (11720943_a_at) / RFU RGS16 (11720944_at) / Fold change /veh RGS16 (11720944_at) / RFU, VPS4B / Fold change vs veh, VPS4B / RFU, CREB1 / Fold change vs veh, CREB1 / RFU, DNAJC13 / Fold change vs veh, DNAJC13 / RFU, GNAQ / Fold change vs veh, GNAQ / RFU, CDK5R1 / Fold change vs veh, CDK5R1 / RFU, ZRANB3 / Fold change vs veh, ZRANB3 / RFU, CUL4A / Fold change vs veh, CUL4A / RFU, CCNY / Fold change vs veh, CCNY / RFU, UFL1 / Fold change vs veh, UFL1 / RFU, COG3 / Fold change vs veh, COG3 / RFU, DIAPH2 / Fold change vs veh, DIAPH2 / RFU, SKA2 / Fold change vs veh, SKA2 / RFU, AFF3 / Fold change vs veh, AFF3 / RFU, LMF1 / Fold change vs veh, LMF1 / RFU, IPO11 / Fold change vs veh, IPO11 / RFU, DFFB / Fold change vs veh, DFFB / RFU, FOXP1 / Fold change vs veh, FOXP1 / RFU, CARD8 / Fold change vs veh, CARD8 / RFU, STRN3 / Fold change vs veh, STRN3 / RFU, ADK / Fold change vs veh, ADK / RFU, RASSF2 / Fold change vs veh, RASSF2 / RFU, WIPF1 / Fold change vs veh, WIPF1 / RFU, LARP1B / Fold change vs veh, LARP1B / RFU, RASA1 / Fold change vs veh, RASA1 / RFU, RB1 / Fold change vs veh, RB1 / RFU, PPFIA1 / Fold change vs veh, PPFIA1 / RFU, MAT2A / Fold change vs veh, MAT2A / RFU, CCT5 / Fold change vs veh, CCT5 / RFU, WDR92 / Fold change vs veh, WDR92 / RFU, CUX1 / Fold change vs veh, CUX1 / RFU, TTC7A / Fold change vs veh, TTC7A / RFU, TMEM135 / Fold change vs veh, TMEM135 / RFU, DEPTOR / Fold change vs veh, DEPTOR / RFU, CPM / Fold change vs veh, CPM / RFU, DNAJB6 / Fold change vs veh, DNAJB6 / RFU, CACNA2D3 / Fold change vs veh, CACNA2D3 / RFU, DTX4 / Fold change vs veh, DTX4 / RFU, TFCP2 / Fold change vs veh, TFCP2 / RFU, GMCL1 /// GMCL1P1 / Fold change vs veh, GMCL1 /// GMCL1P1 / RFU, AEBP2 / Fold change vs veh, AEBP2 / RFU, SNHG1 /// SNORD22 /// SNORD25 /// SNORD26 /// SNORD27 /// SNORD28 /// SNORD29 /// SNORD31 / Fold change vs veh, SNHG1 /// SNORD22 /// SNORD25 /// SNORD26 /// SNORD27 /// SNORD28 /// SNORD29 /// SNORD31 / Fold change (Aza/veh), C12orf56 (ProbeSet 11735607_a_at) / Fold change (ACY-1035/veh), C12orf56 (ProbeSet 11735607_a_at) / Fold change (Aza/veh), FGFR1OP (ProbeSet 11751329_s_at) / Fold change (ACY-1035/veh), FGFR1OP (ProbeSet 11751329_s_at) / Fold change (Aza/veh), VPS36 (ProbeSet 11739960_a_at) / Fold change (ACY-1035/veh), VPS36 (ProbeSet 11739960_a_at) / RFU SYPL1 (11715823_x_at) / Fold change /veh SYPL1 (11715823_x_at) / RFU IGFBP7 (11715501_s_at) / Fold change /veh IGFBP7 (11715501_s_at) / RFU REEP3 (11722064_at) / Fold change /veh REEP3 (11722064_at) / RFU IGLL1 (11728026_x_at) / Fold change /veh IGLL1 (11728026_x_at): dose or concentration left out as unconfirmed
# Conditions: MV-4-11 cells, 48 hours
structure (smiles),measurement,value
Nc1ccc(-c2cccs2)cc1NC(=O)c1ccc2c(c1)cc(C1CC1)n2CCN1CCOCC1 [ACY-1035],Fold change /veh TMEM51 (11727254_a_at),0.98
